Data reported in patent US20040132969A1, “Antibodies, peptides, analogs and uses thereof” (priority 2000, published 2004).
“Also recorded” adds a separate entry of the source.

Tests used:
[1] = system: chick chorioallantoic membrane (CAM) vessels; assay: Vessel counting assay using CAM model; type: in vivo
Description: The CAM were prepared as for the tritiated thymidine assay.
Dulbecco's phosphate buffered saline was used as a control. A range of concentrations of peptides WTM33, WTM34, and WTM35 (1.875, 3.75, 7.5, 15, 30, and 60 μg/ml) were added to the CAM. Inoculations of 0.2 ml of the peptide were carried out on days 10,11 and 12 of CAM development, and then fixed using formalin on day 15.
After fixing in formalin for 2 days the CAM were excised and spoke like sections cut from the centre of the CAM to the outer edge. These were embedded in wax and processed on to slides with H&E staining to visualise the vessels in the section. The numbers of vessels per field of vision, over 10 fields were counted using an Olympus microscope. [Eyepieces set at 58, using ×40 (0.65) lens, from the graticule diameter of field is 0.45 mm, and therefore 1 mm is equal to 2.22 fields of view.] The average number of vessels/field of view×2.22 gives number of vessels/mm of CAM.

[2] = system: human umbilical vein endothelial cells (HUVEC) co-cultured with primary human diploid fibroblasts; assay: Angiosys co-culture angiogenesis assay (HUVEC tubule formation); type: cell-based
Text: The recently developed Angiosys™ co-culture angiogenesis assay (TCS Cell Works, Botolph Claydon, UK) was employed to examine the biological activity of the fibrin E analogue peptides WTM33, WTM34, WTM35, WTM36, and WTM37. This assay involves the co-culturing of human umbilical vein endothelial cells (HUVEC) with primary human diploid fibroblasts. In control cultures treated by the standard method as supplied by the manufacturers, both cell populations increase in number to form a confluent fibroblast monolayer on top off which the HUVEC cells form into corded structures. These structures thicken and anastomose by day 14 to form an intricate network of microvessel-like structures that resemble a capillary bed. It has previously been shown that the control conditions in this assay result in an intermediate degree of formation of these microtubules that can be enhanced by angiogenic effectors such as vascular endothelial growth factor (VEGF), or reduced by anti-angiogenic agents such as suramin (33).
The Angiosys™ assay was used as directed by the manufacturer. Briefly, HUVEC and human diploid fibroblasts were admixed, seeded into 24-well culture plates and incubated for 14 days in endothelial cell culture medium (ECM, TCS Cell Works). This medium, which was replaced with fresh every second day, contains angiogenic factors such as VEGF. Fibrin E analogue peptides were dissolved in this same medium to the indicated concentrations and applied to the cells in the same way as control medium. After the incubation period of 14 days, medium was removed and the cells were fixed in situ at room temperature in 70% ethanol and viewed with an MRC 600 confocal microscope (Bio-Rad). Images were captured using a JVC videocamera mounted on the microscope and coupled to a Neotech Image Grabber/PC.
The table illustrates the […] effects of peptide WTM 35 and 36 (0.19-0.75 μg/ml) on HUVEC tubule formation in the Angiosys™ co-culture angiogenesis assay, compared with an untreated control. The table show the average tubule length obtained using an image analysis package for the PC which transforms the visual data into pixels: […]

HUVEC and fibroblasts = assay: Neutral Red cell metabolism cytotoxicity assay; type: cell-based, human; settings: HUVEC and fibroblast monocultures; 72 hours
Description: In order to determine whether the fibrin E analogue peptides WTM33, WTM34, WTM35, WTM36, and WTM37 are cytotoxic when applied to the HUVEC and fibroblasts used in the Angiosys™ angiogenesis assay, these reagents were examined in two different cytotoxicity assays. To simplify performance of these assays and discriminate between fibroblasts and HUVEC, cells were grown in monocultures rather than together and then treated with the experimental reagents as described below.
A Neutral Red cell metabolism assay was used to determine the cytotoxicity to HUVEC and fibroblasts of the fibrin E analogue peptides. This assay works on the basis of colorimetric measurement of a red dye which, is reported to be taken up into the lysosomes of uninjured cells. Thus the stronger the colour signal obtained from a well of cells, the greater the percentage of cells remaining viable within that well. HUVEC cells were inoculated into wells of 96 wells at a density of 5×10^3 cells per well, in endothelial cell culture medium. Fibroblasts were similarly seeded 5×10^3 cells per well. The cells were incubated for 24 hours under standard conditions to permit adherence and growth, and then treated for 72 hours with fresh medium containing fibrin E peptides over the same range of concentrations used in the Angiosys™ angiogenesis assay. For each concentration of each of the six peptides, four replicate wells of each cell type were treated and then assayed. Following incubation with the test compounds, the medium was removed and replaced with 200 μl per well of fresh medium containing 3.57 mg neutral red per 100 ml. The cells were incubated with this neutral red solution for 3 hours, after which this solution was decanted and replaced with 100 μl 1% formaldehyde/1% CaCl2. This was rapidly decanted and replaced in turn with 200 μl 50% ethanol/1% acetic acid, which was incubated at room temperature for 30 minutes to extract the neutral red from the cells. The plates were then read in a 96 well plate-format spectrophotometer, measuring absorbance at 540 nm. Mean absorbance values from each group of four wells were calculated and expressed as a percentage±standard deviation of the mean value obtained from control wells incubated in the absence of fibrin E analogue peptide.

LHADPDLGVLCPTGC [WTM34]
effect on vessel number ([1]; 30 microgrammes/ml): significant reduction in the number of vessels
effect on number of vessels per mm of CAM ([1]; across the range of concentrations tested (1.875-60 μg/ml)): inhibits cell proliferation and vessel formation in the CAM
effect on number of vessels per mm of CAM ([1]; across the range of concentrations tested (1.875-60 μg/ml), listed as WTM 34): more dramatic biphasic reaction
effect on number of vessels per mm of CAM ([1]; higher dose range / very high doses): significant reduction in vessel formation
effect on vessel number ([1]; low doses): stimulatory effect on vessel number
HUVEC tubule formation (in words) ([2]; 0.75, 0.38 and 0.19 μg/ml): inhibit HUVEC tubule formation; also recorded: complete inhibition - no tubule
toxic effect (number of fibroblasts and endothelial cells present) ([2]; Angiosys system): did not have a toxic effect
HUVEC tubule formation (in words) ([2]; across the range of / all concentrations): inhibition of HUVEC tubule formation; also recorded: most inhibitory
HUVEC tubule formation (in words) ([2]; lowest applied doses of 3 μg/ml): markedly reduced the formation of tubules
cytotoxicity / cell viability, Neutral Red assay (HUVEC and fibroblasts): not cytotoxic; also recorded: no toxicity
